From ChEMBL document CHEMBL1129173, “New class of potent ligands for the human peripheral cannabinoid receptor” (Bioorg Med Chem Lett, 1996)

What was measured:
Cannabinoid receptor 1 = Cannabinoid receptor 1 (Homo sapiens, UniProt P21554); experiment: Evaluated for binding affinity against recombinant human central cannabinoid receptor 1
Cannabinoid receptor 2 = Cannabinoid receptor 2 (Homo sapiens, UniProt P34972); experiment: Evaluated for binding affinity against recombinant human peripheral cannabinoid receptor 2
Cannabinoid receptor 2, sequence (P34972 whole entry): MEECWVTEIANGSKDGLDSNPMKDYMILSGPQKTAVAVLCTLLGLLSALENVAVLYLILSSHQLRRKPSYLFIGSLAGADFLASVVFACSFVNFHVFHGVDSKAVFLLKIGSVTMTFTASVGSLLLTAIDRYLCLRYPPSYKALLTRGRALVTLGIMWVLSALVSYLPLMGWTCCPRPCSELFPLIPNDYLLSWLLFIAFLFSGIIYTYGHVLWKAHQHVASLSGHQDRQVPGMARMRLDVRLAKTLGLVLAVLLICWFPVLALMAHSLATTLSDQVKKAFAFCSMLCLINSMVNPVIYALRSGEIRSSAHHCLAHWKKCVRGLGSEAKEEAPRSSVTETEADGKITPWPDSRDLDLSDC

Cannabinoid receptor 1, sequence (P21554 whole entry): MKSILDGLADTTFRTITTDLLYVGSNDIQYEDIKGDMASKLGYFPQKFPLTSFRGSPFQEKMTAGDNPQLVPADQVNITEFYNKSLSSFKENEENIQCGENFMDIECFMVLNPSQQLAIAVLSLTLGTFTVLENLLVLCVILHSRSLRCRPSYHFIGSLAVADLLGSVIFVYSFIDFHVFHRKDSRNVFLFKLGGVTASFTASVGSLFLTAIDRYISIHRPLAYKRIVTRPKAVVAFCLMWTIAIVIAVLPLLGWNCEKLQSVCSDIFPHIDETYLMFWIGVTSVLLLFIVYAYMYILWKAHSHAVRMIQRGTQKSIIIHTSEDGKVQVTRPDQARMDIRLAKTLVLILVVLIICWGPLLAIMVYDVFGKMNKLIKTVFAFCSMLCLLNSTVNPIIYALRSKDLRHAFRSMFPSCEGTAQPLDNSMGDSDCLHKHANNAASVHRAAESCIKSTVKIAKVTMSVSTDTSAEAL

Row | SMILES | Ki (Cannabinoid receptor 1) [nM] | Ki (Cannabinoid receptor 2) [nM]
1 | Cc1c(C(=O)c2cccc3ccccc23)c2ccccc2n1CCN1CCOCC1 | 638 | 14
2 | COc1ccc2c(c1)c(CN1CCOCC1)c(C)n2C(=O)c1cccc(Cl)c1Cl | 3360 | 22
3 | COC(=O)Cc1c(C)n(C(=O)c2cccc3ccccc23)c2ccc(OC)cc12 | 4610 | 142
4 | COc1ccc2c(c1)c(CC(=O)O)c(C)n2C(=O)c1ccc(Cl)cc1 [INDOMETHACIN] |  | > 20000
5 | COc1ccc2c(c1)c(CCN1CCOCC1)c(C)n2C(=O)c1cccc(Cl)c1Cl | 1920 | 12
6 | COc1ccc2c(c1)c(CC(=O)N1CCOCC1)c(C)n2C(=O)c1cccc(Cl)c1 | 16800 | 354
7 | COc1ccc2c(c1)c(CC(=O)N1CCOCC1)c(C)n2C(=O)c1c(Cl)cccc1Cl | 2550 | 59
8 | COc1ccc2c(c1)c(CC(=O)N1CCOCC1)c(C)n2C(=O)c1ccccc1Cl | 3600 | 69
9 | Cc1c(CN2CCOCC2)c2ccccc2n1-c1cccc2ccccc12 | 6680 | 7840
10 | COc1ccc2c(c1)c(CC(=O)N1CCOCC1)c(C)n2C(=O)c1ccc(F)cc1Cl | 5570 | 134
11 | Cc1c(CCN2CCOCC2)c2ccccc2n1C(=O)c1cccc2ccccc12 | 2180 | 216
12 | COC(=O)Cc1c(C)n(C(=O)c2ccccc2Cl)c2ccc(OC)cc12 | 1720 | 397
13 | Cc1c(CN2CCOCC2)c2ccccc2n1C(=O)c1cccc2ccccc12 | 877 | 8.5
14 | Cc1c(CCN2CCOCC2)c2ccccc2n1C(=O)c1cccc(Cl)c1Cl | 3190 | 27
15 | COc1ccc2c(c1)c(CCN1CCOCC1)c(C)n2C(=O)c1ccc(Cl)cc1 | 10300 | 213
16 | COC(=O)Cc1c(C)n(C(=O)c2ccc(Cl)cc2)c2ccc(OC)cc12 | > 20000 | 4020
17 | COc1ccc2c(c1)c(CC(=O)N1CCOCC1)c(C)n2C(=O)c1ccc(Cl)cc1 [INDOMETHACIN MORPHOLINYLAMIDE] | > 20000 | 435
18 | COc1ccc2c(c1)c(CC(=O)N1CCOCC1)c(C)n2Cc1cccc(Cl)c1Cl | > 20000 | 1050
19 | COc1ccc2c(c1)c(CC(=O)N1CCOCC1)c(C)n2C(=O)c1cccc(Cl)c1Cl | 2040 | 14
